Experiments:
Assay in all cases: relative viability (nuclei count vs DMSO), 5 days (fraction); higher = more cells survive
Crenolanib + Phenformin = compound: CC1(COc2ccc3c(c2)ncn3-c2ccc3cccc(N4CCC(N)CC4)c3n2)COC1 [Crenolanib] + N=C(N)NC(=N)NCCc1ccccc1 [Phenformin] (partner 250 µM)
Method in brief: (§1)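 Nuclei were stained with Hoechst during a one-step fixation (final 0.05% Triton X-100, 1% formaldehyde, 1 ug/ml Hoechst) carried out 5 days after dosing, then counted on 4× images. The cells, lung cancer lines in 1536-well plates, had been dosed by pin tool the day after seeding with one drug alone or a fixed anchor-drug dose plus five library-drug doses (not always all listed) in √10 steps. Relative viability is the nuclei count in treated wells divided by that in vehicle wells, and each value is the median of duplicate plates.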

Crenolanib + Luminespib = compound: CC1(COc2ccc3c(c2)ncn3-c2ccc3cccc(N4CCC(N)CC4)c3n2)COC1 [Crenolanib] + CCNC(=O)c1noc(-c2cc(C(C)C)c(O)cc2O)c1-c1ccc(CN2CCOCC2)cc1 [Luminespib] (partner 0.01 µM)
Method in brief: as §1

Tivantinib + Linsitinib = compound: O=C1NC(=O)[C@@H](c2cn3c4c(cccc24)CCC3)[C@@H]1c1c[nH]c2ccccc12 [Tivantinib] + C[C@]1(O)C[C@@H](c2nc(-c3ccc4ccc(-c5ccccc5)nc4c3)c3c(N)nccn32)C1 [Linsitinib] (partner 1 µM)
Method in brief: as §1

Crenolanib + Decitabine = compound: CC1(COc2ccc3c(c2)ncn3-c2ccc3cccc(N4CCC(N)CC4)c3n2)COC1 [Crenolanib] + Nc1ncn([C@H]2C[C@H](O)[C@@H](CO)O2)c(=O)n1 [Decitabine] (partner 2 µM)
Method in brief: as §1

Cell Line	relative viability (Crenolanib + Phenformin; first compound 0.01 µM)	relative viability (Crenolanib + Phenformin; first compound 0.03162 µM)	relative viability (Crenolanib + Phenformin; first compound 0.1 µM)	relative viability (Crenolanib + Phenformin; first compound 0.3162 µM)	relative viability (Crenolanib + Phenformin; first compound 1 µM)	relative viability (Crenolanib + Luminespib; first compound 0.01 µM)	relative viability (Crenolanib + Luminespib; first compound 0.03162 µM)	relative viability (Crenolanib + Luminespib; first compound 0.1 µM)	relative viability (Crenolanib + Luminespib; first compound 0.3162 µM)	relative viability (Crenolanib + Luminespib; first compound 1 µM)	relative viability (Tivantinib + Linsitinib; first compound 0.01 µM)	relative viability (Tivantinib + Linsitinib; first compound 0.03162 µM)	relative viability (Tivantinib + Linsitinib; first compound 0.1 µM)	relative viability (Tivantinib + Linsitinib; first compound 0.3162 µM)	relative viability (Crenolanib + Decitabine; first compound 0.01 µM)	relative viability (Crenolanib + Decitabine; first compound 0.03162 µM)	relative viability (Crenolanib + Decitabine; first compound 0.1 µM)	relative viability (Crenolanib + Decitabine; first compound 0.3162 µM)	relative viability (Crenolanib + Decitabine; first compound 1 µM)
NCI-H2087	0.466	0.488	0.434	0.524	0.471	0.184	0.195	0.167	0.191	0.184	0.962	0.795	0.951	0.944	0.267	0.341	0.427	0.303	0.335
NCI-H1793	0.453	0.38	0.376	0.288	0.364	0.197	0.249	0.165	0.16	0.186	0.994	0.843	0.813		0.649	0.495	0.537	0.549	0.475
LCLC-103H	0.316	0.329	0.295	0.34	0.352	1.02	0.922	0.878	1.06	0.863	1.03	0.944	1.03	0.996	0.752	0.709	0.692	0.769	0.72
COR-L 105	0.625	0.474	0.497	0.5	0.547	1.12	0.973	0.743	0.859	0.732	0.824	0.695	0.985	0.578	0.684	0.669	0.698	0.682	0.675
NCI-H1437	0.33	0.316	0.301	0.31	0.29	1.18	1.17	1.1	1.21	0.911	1.06	1.04	0.958	1.04	0.634	0.551	0.527	0.562	0.512
HARA	0.471	0.464	0.398	0.391	0.488	0.643	0.734	0.626	0.875	0.828	1.05	0.882	0.882	0.303	0.67	0.543	0.447	0.586	0.569
NCI-H2009	0.497	0.488	0.46	0.4	0.408	1.04	1.08	1.06	1.11	0.982	1.16	1.19	1.15	1.17	0.395	0.367	0.367	0.364	0.416
NCI-H1755	0.666	0.642	0.61	0.613	0.574	0.416	0.656	0.667	0.43	0.397	0.975	0.97	0.916	1.01	0.678	0.74	0.743	0.743	0.697
LU99A	0.95	0.748	0.818	0.902	0.822	0.253	0.217	0.219	0.287	0.207	0.537	0.54	0.523	0.384	0.976	0.844	0.897	1.07	0.975

— the supplement of paper PMC10307832
